Results published in patent publication US20230024842A1, “MUPS TABLET COMPRISING RIBOFLAVIN” (DSM IP Assets B.V., priority 2019, published 2023).

Experiment: Absorption of the water solution after 15 min (coloration / riboflavin release from coated particles)
Format: physicochemical
Conditions: amount containing 10 mg riboflavin dissolved in 1000 ml water for 15 min; measured at 545 nm, spectrophotometer (Genesys 20)
Protocol: 20 mg of coated powder (containing 10 mg of Riboflavin) was dissolved in 1000 ml water for 15 min. Absorption of the solution was measured at 545 nm using a spectrophotometer (Genesys 20, thermo Scientific). Absorption of the solution was 0.065.
10 mg of riboflavin powder was dissolved in 1000 ml water for 15 min. Absorption of the solution was measured at 545 nm using a spectrophotometer (Genesys 20, thermo Scientific). Absorption of the solution was 0.386.
16.6 mg of coated powder (containing 10 mg of Riboflavin) was dissolved in 1000 ml water for 15 min. Absorption of the solution was measured at 545 nm using a spectrophotometer (Genesys 20, thermo Scientific). Absorption of the solution was 0.087.

Absorption of the solution: 0.386
Compound: Cc1cc2nc3c(=O)[nH]c(=O)nc-3n(C[C@H](O)[C@H](O)[C@H](O)CO)c2cc1C [Comparison Example 2, riboflavin]
